The results in this text go back to article PMC4894940, “The function of the two-pore channel TPC1 depends on dimerization of its carboxy-terminal helix” (Cellular and Molecular Life Sciences: CMLS, 2016).

Data set [1] addresses wild type peptide labeled by tryptophane (Arabidopsis thaliana, UniProt Q94KI8). As to the kind of experiment: Label-free MicroScale Thermophoresis (MST), CTH wild type peptide. The settings on record: 750 nM tryptophane-containing target peptide, ligand 3 nM to 100 µM, PBS pH 7.5, 1 % DMSO, 0.1 % Pluronic, 25 °C, 80 % MST power, 100 % LED power, technical duplicates, read-out: dissociation constant (K D) of CTH homo-dimerization. Format: binding. How it is done: (§1) For MST experiments, peptides corresponding to the consensus helical sequence (RSQRVDTLLHHMLGDEL) and the 3LA mutant (RSQRVDTAAHHMAGDEL) were synthesized (Peptide Speciality Laboratories GmbH, Heidelberg, Germany). To allow for label-free MST binding experiments, additional wild type and mutant peptides were synthesized, which were C-terminally extended by addition of two tryptophanes and a short linker (AAWW).
(§2) Labelfree MicroScale Thermophoresis binding experiments were performed in cooperation with the 2bind GmbH (Regensburg, Germany), using 750 nM tryptophane containing target peptide in PBS pH 7.5, 1 % DMSO, 0.1 % Pluronic with varied concentrations of the ligand peptide at 80 % MST power, 100 % LED power in hydrophilic zero background capillaries on a Monolith NT.labelfree device at 25 °C (NanoTemper Technologies, Munich, Germany). Normalized fluorescence data sets (WT peptide and MT peptide) were analyzed in the thermophoresis and temperature jump. For determination of the binding affinity (K D) of the wild type peptide, the recorded fluorescence was normalized to the fraction bound (0 = unbound, 1 = bound), and fitted using the K D fit formula derived from the law of mass action. Technical duplicates were performed for each experimental setup.
In general terms: In MST a laser heats a spot of the sample, and binding alters the fluorescence response.

Data set [2] relates to tryptophane-labeled 3LA mutant CTH peptide. As to the kind of experiment: Label-free MicroScale Thermophoresis (MST), 3LA mutant CTH peptide. Type of data set: binding, Arabidopsis thaliana. The settings on record: 3 nM to 100 µM, 750 nM tryptophane-labeled peptide, PBS pH 7.5, 1 % DMSO, 0.1 % Pluronic, 25 °C, technical duplicates. On the procedure: as §1, §2
In data set [3] the test system is Myc-tagged C-terminus of TPC1. As to the kind of experiment: Co-immunoprecipitation of TPC1 C-termini in HEK293T cells. Type of data set: binding, Arabidopsis thaliana. The settings on record: IP anti-Myc, WB anti-Myc / anti-Flag, 3 independent experiments. From the text: For the Co-IP tests the C-terminally tagged GFP-fusions were used as templates to amplify the soluble C-terminus (amino acids 673–733) of TPC1 or TPC1-3LP fused to GFP with PCR. The constructs were subcloned into the pENTR-D-TOPO vector and afterwards brought into the expression vectors with EcoRI and XhoI (New England Biolabs), so that they were N-terminally tagged either with 6x Myc (pCS2+MT) or with the FLAG-tag (pCS2 + Flag).
HEK293T cells were propagated in DMEM GIBCO Glutamax (Life Technologies) supplemented with 10 % fetal calf serum. Cells were seeded in 6–well plates (20–30 % confluency) and transfected the next day using 10 µl Roti-Fect (Carl Roth) per 2 µg total DNA (1 µg DNA per plasmid). Two days after transfection cells were washed with 2 ml PBS buffer (Life Technologies) and harvested for immunoprecipitation in 150 µl cold lysis buffer (10 mM HEPES, 150 mM NaCl, 1 % Nonidet P40, 5 % glycerol, pH 7,4/KOH) supplemented with protease inhibitors and phosphatase inhibitors (Complete mini EDTA free and PhosStop, Roche). Cells were disrupted mechanically with a syringe (cannula diameter 0.55 mm). The lysate was cleared by centrifugation at 13.500 rpm and 4 °C for 10 min. Total protein concentrations were measured with a bicinchoninic acid protein assay (Applichem), typically the total protein amount was 500–600 µg. Loading controls of 50 µg of the lysate were taken accordingly and filled up to 20 µl with lysis buffer before adding 5 µl of 5x sample buffer (250 mM Tris, 5 % SDS, 25 % glycerol, 0.25 % bromophenol blue, 250 mM β–mercaptoethanol, pH 6.8/HCl) and boiling. For immunoprecipitation, 3 µg of mouse anti-c-Myc Epitope antibody 9E10 (sc-40, Santa Cruz) was used per sample. Samples were incubated with the antibody for 45 min at 4 °C with a rotator, then 10 µl of protein G Dynabeads (Life Technologies) equilibrated in the lysis buffer was added to each sample and incubation continued for another 45 min. Samples were washed three times with cold lysis buffer before eluting three times with 20 µl of 100 mM glycine (pH 2.5/HCl). […]

Data set [4] concerns the molecule itself. As to the kind of experiment: MST; label-free MST; 750 nM tryptophane-containing target peptide in PBS pH 7.5, 1 % DMSO, 0.1 % Pluronic, unlabeled ligand peptide varied from 3 nM to 100 µM, 25 °C, Monolith NT.labelfree; monomer to dimer.

Residues, ends and D or L forms follow the SMILES beside them.

Consider `CSCC[C@H](NC(=O)[C@H](Cc1c[nH]cn1)NC(=O)[C@H](Cc1c[nH]cn1)NC(=O)[C@H](CC(C)C)NC(=O)[C@H](CC(C)C)NC(=O)[C@@H](NC(=O)[C@H](CC(=O)O)NC(=O)[C@@H](NC(=O)[C@H](CCCNC(=N)N)NC(=O)[C@H](CCC(N)=O)NC(=O)[C@H](CO)NC(=O)[C@@H](N)CCCNC(=N)N)C(C)C)[C@@H](C)O)C(=O)N[C@@H](CC(C)C)C(=O)NCC(=O)N[C@@H](CC(=O)O)C(=O)N[C@@H](CCC(=O)O)C(=O)N[C@@H](CC(C)C)C(=O)O` [CTH peptide] (H-RSQRVDTLLHHMLGDEL-OH), for which the Kd in data set [1] was 3.85 ± 1.1 µM. As for “RSQRVDTAAHHMAGDEL [3LA mutant, 3LA mutant CTH peptide …]”, the results for the “interaction in MST” value in data set [2], in data set [2] (listed as 3-LA peptide) and in data set [2] (listed as CTH-3LA) were “no interaction was measured”, “no interactions” and “lack of dimer formation”, respectively.

B1: TPC1 C-terminus: soluble C-terminus (residues 673–732) of wild type TPC1, N-terminally 6xMyc- or FLAG-tagged, C-terminal GFP fusion (protein)
chain: EAFFTELDLEEEEKCQGQDSQEKRNRRRSAGSKSRSQRVDTLLHHMLGDELSKPECSTSDT-eGFP
modifications: not fully specified (N-terminus); also: N-terminal 6xMyc or FLAG tag
notes: soluble C-terminus (residues 673–732) of wild type TPC1, N-terminally 6xMyc- or FLAG-tagged, C-terminal GFP fusion
In the case of B1, in data set [3], the “Co-IP of C-termini” value is “bound to itself”.

B2: C-terminus of the TPC1-3LP-mutant: soluble C-terminus of TPC1-3LP, N-terminally 6xMyc- or FLAG-tagged, C-terminal GFP fusion (protein)
chain: EAFFTELDLEEEEKCQGQDSQEKRNRRRSAGSKSRSQRVDTPPHHMPGDELSKPECSTSDT-eGFP
modifications: not fully specified (N-terminus); also: N-terminally 6xMyc- or FLAG-tagged
notes: soluble C-terminus of TPC1-3LP, N-terminally 6xMyc- or FLAG-tagged, C-terminal GFP fusion
As to B2, the “Co-IP of C-termini” value is on record as “reduced ability to dimerize” in data set [3] and “visibly weaker interaction of the two C-termini” in data set [3] (listed as 3LP-Flag-Ct).

B3: Synthetic wild type CTH peptide (consensus C-terminal helix of TPC1, residues 707-723) (peptide)
peptide: RSQRVDTLLHHMLGDEL
notes: The two copies are written as one molecule; also called WT peptide; wild type peptide; source: synthetic peptide (Peptide Speciality Laboratories GmbH); not shown: AAWW (short linker and two tryptophans; only on the target copy held at 750 nM), C-terminal, kept
As to B3, in data set [4], the Kd is 3.85 ± 1.1 µM.
